Tests used:
Hypervitamin A toxicity = conditions: result in words
L1210 cell line = assay: Growth inhibition of cell line L1210 (tritiated thymidine incorporation); format: cell-based, mice; conditions: Mus musculus, L1210, 24 hours, read-out: IC50, concentration that inhibits cell growth by 50%
Description: The growth of this leukaemia cell line in mice is assessed by the capacity of the cells to incorporate tritiated thymidine. The rate of incorporation is measured 24 hours after the introduction of the test compound into the culture medium.
Table V lists, for each compound, the concentration that inhibits cell growth by 50%.

HL-60 cells = assay: Cell differentiation of HL-60 cells (NBT reduction); format: cell-based, human; conditions: HL-60, 20 μM, six days
Description: The cell differentiation is determined according to the method of J. M. GALLUP and al. (Proceedings of the Society for Experimental Biology and Medecine, 186, 269-274, 1987).
HL-60 cells (human promyclocyte) (2×10^5 cells/ml) are incubated during six days with the tested compounds. An aliquot (0,5 ml) of cells is than incubated with 0,5 ml of a 0,2% NBT (Nitroblue Tetrazolium) solution and […] of PMA (phorbol ester) for 20 min at 37° C.
Cells are washed with PBS and numbered under microscope, Table VII lists the percentage of cells containing cristals of reduced NBT (i,e, % of positive NBT cells) at the concentration of 20 μM.

[1] = patent EP 237166; isolated from an alga; cited from earlier work
colon C38 adenocarcinoma = assay: Anti-tumour activity on colon C38 adenocarcinoma in vivo; design: species or system mice; conditions: colon 38 fragment s.c.; i.p. on 2nd and 4th days after implantation; day 20
Description: After subcutaneous implantation of a fragment of tumour (colon 38) in the axillary region, on the 2nd and 4th days after implantation a solution of the test compound is administered to a group of animals by the intraperitoneal route. On the 20th day the animals are sacrificed and the tumour volume is ascertained.
The % T/C ratio is calculated as follows: [formula]

Row | Compound | IC50 (L1210 cell line) [µM] | % of positive NBT cells (HL-60 cells) [%] | other results
1 | CC1=C(/C=C/C(C)=C/C=C/C(C)=C/C(=O)O)C(C)(C)CCC1 [Retinoic acid, reference compound] | 20.1 |  | Hypervitamin A toxicity (Hypervitamin A toxicity): causing hypervitamin A toxicity
2 | C=CCc1cccc2c(=O)c(C)c(/C=C/c3ccccc3)oc12 [Example 19, 8-Allyl-3-Methyl-2-Styryl-4H-1-Benzopyran-4-One] | 6.6 | 45 | 
3 | hormo-thamnione |  |  | Cytotoxic properties [1]: cytotoxic properties
4 | COc1ccc(/C=C/c2cc(=O)c3c(OC)c4ccoc4cc3o2)cc1OC [Example 7, 4-Methoxy-7-(3,4-Dimethoxystyryl)-5H -Furo[3,2-g]Benzopyran-5-One] | 8.5 |  | 
5 | COC(=O)c1c(OC)cc2oc(/C=C/c3ccc(OC)c(OC)c3)cc(=O)c2c1OC [Example 2, Methyl 5,7-Dimethoxy-4-Oxo-2-(3,4-Dimethoxy-Styryl) -4H-1-Benzopyran-6-Carboxylate] | 6.4 | 85 | T/C % (colon C38 adenocarcinoma): 35%; Tumour volume after 20 days (colon C38 adenocarcinoma): 356 mm3

Continued by falling IC50 (L1210 cell line), values first:

Row | IC50 (L1210 cell line) [µM] | Compound | % of positive NBT cells (HL-60 cells) [%] | other results
6 | 12.5 | COC(=O)c1c(OC)cc2oc(/C=C/c3ccccc3)cc(=O)c2c1OC [Example 1, Methyl 5,7-Dimethoxy-4-Oxo-2-Styryl-4H-1-Benzopyran-6-Carboxylate] | 52 | T/C % (colon C38 adenocarcinoma): 56%; Tumour volume after 20 days (colon C38 adenocarcinoma): 573 mm3
7 | 12 | COC(=O)c1ccc(/C=C/c2cc(=O)c3c(OC)c(C(=O)OC)c(OC)cc3o2)cc1 [Example 4, Methyl 5,7-Dimethoxy-2-(4-Methoxycarbonyl-Styryl)-4H -1-Benzopyran-6-Carboxylate] |  | 
8 | 7.5 | Cc1c(/C=C/c2ccccc2)oc2c(C)cccc2c1=O [Example 17, 3,8-Dimethyl-2-Styryl-4H-1-Benzopyran-4-One] |  | 
9 | 7.25 | CCCc1cccc2c(=O)cc(/C=C/c3ccccc3)oc12 [Example 21, 8-Propyl-2-Styryl-4H-1-Benzopyran-4-One] |  | 
10 | 5.85 | C=CCc1cccc2c(=O)cc(/C=C/c3ccccc3)oc12 [Example 18, 8-Allyl-2-Styryl-4H-1-Benzopyran-4-One] |  | 
11 | 5 | COC(=O)c1c(OC)cc2oc(/C=C/c3cc(OC)c(OC)c(OC)c3)cc(=O)c2c1OC [Example 3, Methyl 5,7-Dimethoxy-4-Oxo-2-(3,4,5-Tri-Methoxystyryl) -4H-1-Benzopyran-6-Carboxylate] | 59 | 
12 | 3 | C=CCc1cc(OC)cc2c(=O)cc(/C=C/c3ccccc3)oc12 [Example 20, 6-Methoxy-8-Allyl-2-Styryl-4H-1-Benzopyran-4-One] |  | 

Reference: patent US5409952A, “Heterocyclic compounds: 2-styryl-4H-1-benzopyran-4-ones” (Adir et Compagnie, priority 1990, dated 1995)
